# Measurements published in ChEMBL document CHEMBL3507680, “University of Dundee, Gates Library screen for HepG2 cell viability”.
# Assay: Human HepG2 cell viability assay in 384 well format
# Type: toxicity, cell-based
# Set-up: dose 125 nL, time 70.5 hour; concentration not given beside the values
# Settings: HepG2 cells, read-out: Inhibition
row,SMILES,cytotoxicity at 70.5 h
1,Cc1nc(CCNC(=O)CC2CCN(C(C)C)CC2)sc1Cl,45.7%
2,CNC(=O)CN1CCOCC12CCN(Cc1ccncc1)CC2,-16.2%
3,Cc1ccc(C(=O)N2CCC3(CC2)CC(c2ccccc2)C(=O)N3)cn1 (stereo unspecified),0.473%
4,O=C(CNc1ccc(F)cc1OCC(F)(F)F)NCC(F)(F)F,13.1%
5,Cc1ccc(C(NCC(=O)N2CCNC(=O)C2)C(F)(F)F)cc1 (stereo unspecified),-113%
6,CCCn1nc(C)c(C(=O)N(C)[C@@H]2CC[C@@H](OC)[C@@H]2O)c1C,-3.89%
7,COCCCC1(CO)CCCN(CCc2ccccc2)C1 (stereo unspecified),-1.1%
8,Cc1ccccc1SC1CCN(C(=O)[C@@H]2C[C@@H](N)CN2)CC1,-2.11%
9,O=C(c1ccccc1)N1CC[C@H]2C[C@@H](c3nnc(C4CC4)o3)O[C@@H]2C1,-4.88%
10,CC(C)(Oc1ccc(C(N)=O)cc1)C(=O)N(CCC#N)CC1CCCO1 (stereo unspecified),6.27%
11,CCc1noc(C2CCCCN2C(=O)c2sccc2C)n1 (stereo unspecified),12.2%
12,O=S(=O)(NCCn1ccc(-c2ccccn2)n1)C1CC1,-0.0974%
13,CN(CCn1cccn1)C1CCCN(Cc2noc(C3CC3)n2)C1 (stereo unspecified),12.7%
14,Cc1nc(C)c(CNCC2CCCn3ccnc32)s1 (stereo unspecified),15.5%
15,CCC(=O)N1CCc2c(O)nc(C3CCCCN3C(=O)C3CC3)nc2C1 (stereo unspecified),-3.59%
16,CC(C)(C)c1c[nH]c([C@@H]2COCCN2C2CCNCC2)n1,-0.308%
17,c1cncc(CN2CC[C@@H]3O[C@H](COCCN4CCCC4)CC[C@@H]32)c1,5.3%
18,CC1CN(CC(=O)N2CCCC2)CCN1c1ccc2nncn2n1 (stereo unspecified),4.7%
19,CNC(=O)C1=NOC2(CCN(Cc3nccs3)C2)C1 (stereo unspecified),-3.01%
20,CC(C)Cc1cc(C(=O)NCC(c2ccc(F)cc2)N(C)C)n(C)n1 (stereo unspecified),-15.4%
21,Cc1nn(CC(O)CN2CCc3ccccc3C2)c(=O)c(C#N)c1C (stereo unspecified),-19.9%
22,c1ccc2[nH]c(C3CCN(Cc4noc(C5CC5)n4)CC3)cc2c1,-3.83%
23,COCC(=O)N1CCC2(COCc3c(C)nc(N(C)C)nc32)C1 (stereo unspecified),15.4%
24,Cc1nc2n(n1)CC(NCC(=O)NCCC1=CCCCC1)CC2 (stereo unspecified),0.305%

row,SMILES,cytotoxicity at 70.5 h
1,COc1ccc2cccc(CC(=O)NCc3nccc(N)n3)c2c1,-2.39%
2,COc1cc(CN(C)C(C)c2ccccn2)cc2c1OCO2 (stereo unspecified),-13.1%
3,COc1cc(C)ccc1OCC(=O)NS(=O)(=O)c1ccc(Br)s1,-4.31%
4,CC(C)NC(=O)COc1ccc(-c2nc(C(C)C)no2)cc1,-19.4%
5,CC(C)Nc1nc(N2CCCC2)nc2c1CN(C(C)C)CC2,0.846%
6,N#CCCN(CC(=O)Nc1ccc(Br)cc1Cl)Cc1cccnc1,-1.52%
7,CN(Cc1nnc(C2CC2)o1)Cc1ccccc1-c1ccccc1,-9.25%
8,CCc1noc(CN2CCN(C(=O)Cc3ccc(F)cc3)CC2)n1,-5.71%
9,CCN1CC(CN2CCOCC2)Oc2ncccc2C1=O (stereo unspecified),13.2%
10,CN(C)C(=O)COC[C@@]12CCC[C@@H]1CN(C1CCCC1)C2,-1.63%
11,CN(c1nc(CSc2nnc(Cn3cncn3)o2)cs1)C1CC1,0.758%
12,N#Cc1ccnc(N2CCN(C(=O)Cc3ccc4c(c3)CCO4)CC2)c1,-7.76%
13,CCc1cc(N2CCN(c3ccc(Cl)cn3)CC2)n2nccc2n1,-1.55%
14,CC(NC(=O)NCCCN1CCCCCC1=O)c1nncn1C (stereo unspecified),10.2%
15,COc1cc(NCc2c(C)noc2C)c(OC)cc1Cl,10.4%
16,COc1c(Cl)cccc1NCc1csc(NC(C)=O)n1,3.58%
17,CC1(C)OCC(CNC(=O)c2cnn(-c3ccc(Cl)cc3)c2N)O1 (stereo unspecified),7.47%
18,CC(CNC(=O)Nc1ccc(F)cc1Br)N1CCOCC1 (stereo unspecified),31.4%
19,CC1(C(=O)N2CCN(c3ncccn3)CC2)CNCCO1 (stereo unspecified),-8.07%
20,Cc1csc(N2CCN(C(=O)c3c(C)oc(C)c3C)CC2)n1,-1.28%
21,Cc1ccc(NC(=O)c2cccc(OCc3nnnn3C)c2)nc1,-9.18%
22,CC(C)NC(=O)CNC(=O)OC(C)(C)C,-13%
23,Cn1ccnc1CN1CCCN(C(=O)c2ccc(O)nc2)CC1,-4.72%
24,CC(C)C(=O)N1CCC(NCc2c(C(C)C)nn(C)c2N(C)C)CC1,-5.89%

row,SMILES,cytotoxicity at 70.5 h
1,COc1ccc(S(=O)(=O)NC2(CC(N)=O)CCC2)cc1,20.9%
2,CC(O)c1cn(Cc2ccccc2)nn1 (stereo unspecified),-6.51%
3,Cc1cnc(N2CCOC3(CCCN(C)C3)C2)nc1 (stereo unspecified),-10.1%
4,CC(C)(C)c1cnc(CN2CCCC2Cn2cccn2)o1 (stereo unspecified),-5.71%
5,CCn1nc(C)c(-c2cncn2CCN(C)C2CCCC2)c1C,-7.35%
6,O=C(CCn1ccnc1)N1CC[C@H](Oc2cccc(F)c2)[C@@H](O)CC1,28.5%
7,CN(C)CCOCc1nnc2n1CCN(Cc1ccoc1)CC2,36.2%
8,CC(C)N(CC(N)=O)C(=O)CCC(=O)c1ccc(F)cc1F,-6.11%
9,CCOCCN1CCN(Cc2nc(CC(C)C)no2)CC1,1.47%
10,O=C(O)c1cnc2c(cnn2C2CCCC2)c1,-0.534%
11,CCc1cnc(N2CCN(Cc3ccncc3)CC2)s1,-3.17%
12,Oc1ccccc1-c1n[nH]c(C2CC2)n1,11.6%
13,Cc1[nH]c(-c2ccccc2)nc1C(=O)N1CCC(O)(CO)CC1,17.9%
14,CCn1c(C)nnc1SCCn1cc(-c2nccs2)nn1,-7.44%
15,Cc1cccc(NC(=O)[C@@H]2CCCN2Cc2cnc3ccccn23)n1,1.07%
16,CC(=O)c1ccc(N2CCN(C(=O)c3cc(C(C)C)nn3C)CC2)cc1,-14.7%
17,c1ccc(N2CCC3(COCCN(c4ncccn4)C3)C2)nc1 (stereo unspecified),-10%
18,Cc1nc(Nc2nncs2)cc(C2CCCN2C)n1 (stereo unspecified),3.74%
19,Cc1nc(N2Cc3cnn(Cc4ccc(F)cc4)c3C2)no1,13.6%
20,O=C(Nc1cccnc1)C1=Cc2ccccc2OC1,7.74%
21,O=C(O)c1csc(S(=O)(=O)Nc2c(F)cccc2-n2cccn2)c1,4.64%
22,Cc1cc(N(C)C)cc(C2CCN(S(=O)(=O)c3cccs3)C2)n1 (stereo unspecified),14.4%
23,Cc1nc(O)cc(CCNc2nccc(CCC(F)(F)F)n2)n1,-8.71%
24,Cc1ccccc1CNC(=O)CNc1ccc(OC2CCOC2)cc1 (stereo unspecified),-13.6%

row,SMILES,cytotoxicity at 70.5 h
1,O=C(NCc1cn2c(n1)CN(Cc1ccncc1)CC2)C1CCC1,8.23%
2,Cc1nn(C)c2nc(N3CCC(C(O)Cc4ccccc4)CC3)sc12 (stereo unspecified),-2.11%
3,CC1CCC2(CC1)Nc1ccccc1CO2 (stereo unspecified),15.1%
4,COc1ccc(CN(C)Cc2nc3c(cnn3C)c(=O)[nH]2)cc1OC,-6.1%
5,CNS(=O)(=O)Cc1ccc(CNc2cncc(-n3cccn3)n2)cc1,-18.1%
6,Cn1c(CO)nnc1SCc1c(F)cccc1Br,-5.69%
7,CC(C)N1CCC(C(=O)N2CCN(c3cccc(C(=O)O)c3)CC2)CC1,-9.74%
8,COCCC(=O)N1CCC(c2nc(O)cc(-c3ccncc3)n2)C1 (stereo unspecified),-11.8%
9,Cn1cc(CN(C/C=C/c2ccccc2)C2CC2)cn1,-8.38%
10,CCN(CC1CCCO1)C(=O)Nc1ccc(F)cc1OC (stereo unspecified),-8.02%
11,CC(C)c1nc(CNC(=O)c2ccc(C(C)N3CCCCC3)o2)cs1 (stereo unspecified),11.9%
12,CCc1csc(CNC(=O)C(CC)n2cccn2)n1 (stereo unspecified),-2.46%
13,O=C(Cc1csc(-c2ccco2)n1)N1CCSCC1,-11.7%
14,COc1ncc(C(=O)N2CCCC3(C=Cc4ccccc4O3)CC2)cn1 (stereo unspecified),13.5%
15,CCCOCCn1ncc(N2CCCC2)cc1=O,-1.75%
16,CC(C)(C)C(=O)N1CC[C@@H]2[C@H](CC1)N(S(C)(=O)=O)CCS2(=O)=O,-10.7%
17,COc1ccc(C(=O)N2CC(c3ccncc3)C2)c(OC)c1OC,-5.75%
18,COc1ccc(-n2ccc(C(=O)NCCn3ccnc3)n2)cc1,-8.04%
19,Cc1cccc(OCC(=O)NS(=O)(=O)Cc2ccccc2)c1,-5.52%
20,Cc1cc(C2CCN(S(=O)(=O)N(C)C)CC2)ccn1,12.7%
21,COc1ccc(CC2CN(C(=O)c3ocnc3C)CCO2)cc1 (stereo unspecified),14.4%
22,CCN1CCC(NC(=O)N(C)Cc2csc3ccccc23)CC1,-8.41%
23,Cc1cc2ccncc2n1CC1(O)CCN(C(=O)c2cccnc2)CC1,-0.954%
24,OCC1(Cc2cccc(Cl)c2)CCCN(c2ncccn2)C1 (stereo unspecified),28.5%

row,SMILES,cytotoxicity at 70.5 h
1,Cc1nc[nH]c1CN1CCc2nc3scc(C)c3c(=O)n2CC1,-1.43%
2,CC(C)CN1CCN(C(=O)c2cc(=O)c3ccccc3[nH]2)CC1,-2.68%
3,Cn1cc(CN2CCn3c(CNC(=O)c4cccn4C)cnc3C2)cn1,4.31%
4,CCOC(C)c1nc(COc2nc(C)no2)cs1 (stereo unspecified),-3.02%
5,Cc1ncc(-c2ccnc(SCCN)n2)c(-c2ccco2)n1,21.8%
6,CC(C)CN1C(=O)C[C@@H]2[C@@H]1CCN2Cc1cccc(C#N)c1,2.48%
7,CC(=O)N1CCCC1C(=O)N1CCC(=Cc2cccc(F)c2)CC1 (stereo unspecified),-14.8%
8,O=C1CO[C@@H]2CN(C3CCOCC3)C[C@H]2N1Cc1cccc(F)c1,-6.55%
9,CCCc1nnc2sc(CC3CN(Cc4ccccc4)CCO3)nn12 (stereo unspecified),-8.68%
10,COc1ccc(Cl)cc1-c1nc(N)nc(N(C)C)n1,-6.28%
11,O=C(CCN1C(=O)CC2(CCCC2)C1=O)NCCc1nccs1,-22.6%
12,Cn1nnc2c1C(COCc1cccnc1)CN(Cc1ccoc1)C2 (stereo unspecified),-16.5%
13,CN(C)c1cccc(C2CCN(c3ncccn3)CC2)n1,-3.49%
14,CCNC(=O)C(C)NC(=O)Nc1ccccc1SC(F)(F)F (stereo unspecified),-10.8%
15,CN(C)C(=O)CC1CC2(CCN(Cc3ccco3)CC2)c2ccccc21 (stereo unspecified),-27.6%
16,Clc1cccnc1N1CCC(NCc2cccc3cn[nH]c23)C1 (stereo unspecified),-4.87%
17,COCCN(C)C(=O)c1ccccc1-n1cc(CN(C)C)cn1,-5.25%
18,CC1CCN(CCNC(=O)c2scnc2Cl)CC1,18.5%
19,O=C(c1ncccn1)N1CCC2(CC1)COC(COc1ccccn1)C2 (stereo unspecified),10.9%
20,O=C(NCCCO)C1CC(=O)N(c2n[nH]c3cccc(F)c23)C1 (stereo unspecified),1.35%
